Assay results: patent publication US12595234B2, “Bioactive benzocycloheptene analogues from himachalenes and its applications” (Council of Scientific and Industrial Research, priority 2020, dated 2026)

Biological target: MK2 (Homo sapiens, UniProt P49137)
Experiment: Inhibition in solution assay of kinase MK2
Format: biochemical
Conditions: IC50 extrapolated from the dose dependent inhibition graphs (FIG. 6)
Source text: Determination of affinity of MK2 inhibitors (IC50) through inhibition in solution assay of kinase MK2 by various compounds of general formula I-VI

MK2, sequence (P49137 whole entry, species assumed): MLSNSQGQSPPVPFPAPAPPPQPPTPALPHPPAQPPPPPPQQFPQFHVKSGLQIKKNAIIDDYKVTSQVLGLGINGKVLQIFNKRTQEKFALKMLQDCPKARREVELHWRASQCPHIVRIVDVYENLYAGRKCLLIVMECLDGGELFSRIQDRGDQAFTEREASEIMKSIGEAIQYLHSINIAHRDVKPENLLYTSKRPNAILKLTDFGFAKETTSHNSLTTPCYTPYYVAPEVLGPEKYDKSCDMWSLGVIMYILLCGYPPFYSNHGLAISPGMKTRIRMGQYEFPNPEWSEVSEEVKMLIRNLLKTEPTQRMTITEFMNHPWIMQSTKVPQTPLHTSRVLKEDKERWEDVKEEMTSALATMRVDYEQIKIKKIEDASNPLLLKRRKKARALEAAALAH

Cc1ccc(-c2ccc3c(ccc4sc5c(c43)NC[C@@H](C)NC5=O)n2)cn1 [PF 3644022]
IC50: 585 nM
